According to patent US12115166B2, “Corticotropin releasing factor receptor antagonists” (Spruce Biosciences, Inc., priority 2017, dated 2024):

Legend:
[1] = Study 1: single-escalating oral dose pharmacokinetics in healthy adult subjects (fed, and 150 mg fasted); assay type: in vivo, human; conditions: 50 to 800 mg, fed state; formal test inconclusive
Description: Study 1 was the first-in-human study that investigated the safety, tolerability, and PK of single-escalating doses of Compound 1, given orally, to healthy adult subjects. […] The data from this study were used for the selection of doses for Study 2.
In Study 1, Compound 1 was administered to healthy adult subjects as a single PO dose of 2, 10, 50, 150, 400, or 800 mg in the fed state and 150 mg in the fasted state. Absorption occurred moderately late, achieving peak Cmax between 4 to 6 hours following dosing in the fed state.
When Compound 1 was given in the fed state, median time to reach maximum plasma concentration (Tmax) occurred between 4 and 6 hours.
As part of this single-dose escalation study, a food effect PK investigation was performed to examine Compound 1 exposures in both the fed and fasted states at the 150-mg dose level. A total of 6 subjects were administered 150 mg Compound 1 in each of these 2 dosing groups. Of these 6 subjects, 4 subjects received Compound 1 at the same dose in both fed and fasted states. […] Table 6 provides a summary of the PK parameters at the 150-mg dose level under both fed and fasted state conditions.
PK parameters AUC0-∞ and Cmax were analyzed separately for dose proportionality for Compound 1 from 50 to 800 mg when administered in the fed state. […]

CRF1 receptor = target: T1, CRF1 receptor (Homo sapiens, UniProt P34998); assay: Phase 2 study in adults with classic CAH: hormone response (ACTH, 17-OHP, androstenedione); assay type: in vivo; conditions: CAH patients
T1 construct: from tissue; host or cells: living human patients
T1 sequence (P34998 24-415): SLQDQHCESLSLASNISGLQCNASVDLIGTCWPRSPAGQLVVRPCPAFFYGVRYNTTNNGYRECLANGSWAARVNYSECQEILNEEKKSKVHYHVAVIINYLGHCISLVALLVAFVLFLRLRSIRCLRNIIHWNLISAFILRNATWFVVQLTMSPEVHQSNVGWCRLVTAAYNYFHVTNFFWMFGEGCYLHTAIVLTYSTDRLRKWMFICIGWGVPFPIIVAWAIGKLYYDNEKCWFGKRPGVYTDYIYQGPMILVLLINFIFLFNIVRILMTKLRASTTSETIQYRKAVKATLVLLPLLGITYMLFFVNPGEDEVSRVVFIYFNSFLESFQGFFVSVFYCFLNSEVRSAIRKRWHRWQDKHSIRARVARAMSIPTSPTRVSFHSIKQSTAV
Description: Cohort A of the Phase 2 Study includes a 6-week, multiple-dose, dose escalation study of Compound 1 for the treatment of adults with classic CAH. After screening, eligible patients will be enrolled into a 6-week treatment period followed by a 4-week washout/safety follow-up period.
This cohort will be conducted in approximately 9 patients, who will receive Compound 1 daily for up to 6 weeks. Compound 1 will be administered as an oral daily dose. Patients will undergo titration of Compound 1 through three escalating dosage strengths at 2-week intervals. […]
Patients in Cohort B will receive study drug at 200 mg BID, with a dose in the morning and a dose in the evening, either with a meal or consumption of a standardized snack. For Cohorts C and D, the dose level and the frequency and timing of dosing will be determined based on interim data from the previous cohorts. […]
Outcome Measures Primary Outcome Measure: • 1. […] To assess the efficacy of Compound 1 in subjects with classic CAH as measured by percent and absolute change in 17-OHP compared to baseline. […] To explore the dose(s) of Compound 1 that cause pharmacodynamics changes in plasma concentrations of ACTH, androstenedione, and testosterone, as measured by the absolute and percent change from baseline by dose. • 4. […]

Compound: CCC(CC)c1cc(C)nc2c(-c3sc(N4CCOCC4)nc3Cl)c(C)nn12 [Compound 1, 3-(4-Chloro-2-(morpholin-4-yl)thiazol-5-yl)-7-(1-ethylpropyl)-2,5-dimethylpyrazolo(1,5-a)pyrimidine]
- dose proportionality of Cmax [1]: more than dose proportional
- morning rise in A4 (CRF1 receptor): attenuates
